According to patent US20260174769A1, “MACROCYCLIC COMPOUNDS AND METHODS OF USE” (AMGEN INC., priority 2022, published 2026):
Structures can show the parent of a compound that is named as a salt.

biological target: His-tagged KRAS G12D protein (Homo sapiens, UniProt P01116, G12D); assay: KRAS G12D TR-FRET Assay; format: binding; details: TR-FRET binding
Procedure: The His-tagged KRAS G12D protein (Amgen) was diluted to 20 nM in Assay Buffer (20 mM HEPES, pH 7.4, 10 mM MgCl2, 50 mM NaCl, 0.1% BSA, 0.01% Tween-20, 10 μM GDP) and 2 μL was added to the appropriate wells of the 384-well plate. The plate was incubated for 30 minutes at room temperature. Biotinylated KRPep-2d substrate (Amgen) was diluted to 20 nM in Assay Buffer and 2 μL was added to all wells and incubated for 1 hour at room temperature. Detection Reagent (0.4 nM LANCE Eu-W1024 Anti-6×His (Perkin Elmer AD0401), 5 nM streptavidin-d2 (Cisbio 610SADLA)) was prepared in Assay Buffer, then 4 μL was added to the plate and incubated for 1 hour at room temperature.

Chain of His-tagged KRAS G12D protein (P01116 1-188 isoform P01116-2 G12D): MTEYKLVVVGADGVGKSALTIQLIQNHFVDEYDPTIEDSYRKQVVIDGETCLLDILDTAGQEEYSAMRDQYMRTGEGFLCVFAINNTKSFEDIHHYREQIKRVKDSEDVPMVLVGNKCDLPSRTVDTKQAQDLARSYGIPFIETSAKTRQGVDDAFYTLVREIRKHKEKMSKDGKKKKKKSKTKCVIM

Row | IC50 | Structure (SMILES)
1 | 10 nM | O=C1OC[C@H]2C[C@@H]2c2c(Cl)cc3[nH]ncc3c2-c2ncc3c(nc(OC[C@@]45CCCN4C[C@H](F)C5)nc3c2F)N2CCC[C@H](C2)O1 (racemic) [Example 113]
2 | 7 nM | C[C@@]12CCCN(C1)c1nc(OC[C@@]34CCCN3C[C@H](F)C4)nc3c(F)c(ncc13)-c1cc(O)cc3c1[C@@H](CCCC(=O)N2)CCC3 (single isomer, unassigned) [Example 27, 2,2,2-trifluoroacetate salt]
3 | 68 nM | C[C@@]12CCCN(C1)c1nc(OC[C@@]34CCCN3C[C@H](F)C4)nc3c(F)c(ncc13)-c1cc(O)cc3c1[C@H](CCCC(=O)N2)CCC3 (single isomer, unassigned) [Example 28, 2,2,2-trifluoroacetate salt]
4 | 10 nM | Cc1cc2[nH]ncc2c2c1CCC[C@H](F)C(=O)N(C)[C@@H]1CCCN(C1)c1nc(OC[C@@]34CCCN3C[C@H](F)C4)nc3c(F)c-2ncc13 (single isomer, unassigned) [Example 51]
5 | 19 nM | Cc1cc2[nH]ncc2c2c1CCC[C@@H](F)C(=O)N(C)[C@@H]1CCCN(C1)c1nc(OC[C@@]34CCCN3C[C@H](F)C4)nc3c(F)c-2ncc13 (single isomer, unassigned) [Example 52]
6 | 79 nM | O=C1CCCCc2c(Cl)cc3[nH]ncc3c2-c2ncc3c(nc(OC[C@@]45CCCN4C[C@H](F)C5)nc3c2F)N2CC[C@@H]3CCN1[C@@H]3C2 (single isomer, unassigned) [Example 61]
7 | 3 nM | O=C1CCCCc2c(Cl)cc3[nH]ncc3c2-c2ncc3c(nc(OC[C@@]45CCCN4C[C@H](F)C5)nc3c2F)N2CC[C@H]3CCN1[C@H]3C2 (single isomer, unassigned) [Example 62]
8 | 3 nM | O=C1CCCc2c(F)ccc3cccc(c23)-c2ncc3c(nc(OC[C@@]45CCCN4C[C@H](F)C5)nc3c2F)N2CC[C@H]3CCN1[C@H]3C2 (single isomer, unassigned) [Example 72]
9 | 14 nM | C[C@@]12CCCN(C1)c1nc(OC[C@@]34CCCN3C[C@H](F)C4)nc3c(F)c(ncc13)-c1cccc3ccc(F)c(c13)CCOC(=O)N2 (single isomer, unassigned) [Example 77]
10 | 3810 nM | C[C@]12CCCN(C1)c1nc(OC[C@@]34CCCN3C[C@H](F)C4)nc3c(F)c(ncc13)-c1cccc3ccc(F)c(c13)CCOC(=O)N2 (single isomer, unassigned) [Example 78]
11 | 17 nM | O=C1OC/C=C/c2c(Cl)cc3[nH]ncc3c2-c2ncc3c(nc(OC[C@@]45CCCN4C[C@H](F)C5)nc3c2F)N2CCC[C@H](C2)O1 (single isomer, unassigned) [Example 116]
12 | 5 nM | O=C1OC/C=C\c2c(Cl)cc3[nH]ncc3c2-c2ncc3c(nc(OC[C@@]45CCCN4C[C@H](F)C5)nc3c2F)N2CCC[C@H](C2)O1 (single isomer, unassigned) [Example 122]
13 | 8 nM | Cc1cc2[nH]ncc2c2c1/C=C\COC(=O)O[C@@H]1CCCN(C1)c1nc(OC[C@@]34CCCN3C[C@H](F)C4)nc3c(F)c-2ncc13 (single isomer, unassigned) [Example 123]
14 | 7 nM | Fc1c2ncc3c(nc(OC[C@@]45CCCN4C[C@H](F)C5)nc13)N1CCOC[C@H](COCCCCc3c(Cl)cc4[nH]ncc4c3-2)C1 (single isomer, unassigned) [Example 136]
15 | 4 nM | Fc1c2ncc3c(nc(OC[C@@]45CCCN4C[C@H](F)C5)nc13)N1CCOC[C@@H](COCCCCc3c(Cl)cc4[nH]ncc4c3-2)C1 (single isomer, unassigned) [Example 137]
16 | 6 nM | Cc1cc2[nH]ncc2c2c1CCCC(F)C(=O)N[C@@H]1CCCCN(C1)c1nc(OC[C@@]34CCCN3C[C@H](F)C4)nc3c(F)c-2ncc13 (single isomer, unassigned) [Example 159]
17 | 4 nM | Cc1cc2[nH]ncc2c2c1CCCC(F)C(=O)N[C@@H]1CCCCN(C1)c1nc(OC[C@@]34CCCN3C[C@H](F)C4)nc3c(F)c-2ncc13 (single isomer, unassigned) [Example 160]

Row | IC50 | Structure (SMILES)
18 | 37 nM | O=C1CCCCc2c(Cl)cccc2-c2ncc3c(nc(OC[C@@]45CCCN4C[C@H](F)C5)nc3c2F)N2CC[C@H]3CCN1[C@H]3C2 (single isomer, unassigned) [Example 162]
19 | 2840 nM | O=C1CCCCc2c(Cl)cccc2-c2ncc3c(nc(OC[C@@]45CCCN4C[C@H](F)C5)nc3c2F)N2CC[C@@H]3CCN1[C@@H]3C2 (single isomer, unassigned) [Example 163]
20 | 12700 nM | C[C@]12CCCCN(C1)c1nc(OC[C@@]34CCCN3C[C@H](F)C4)nc3c(F)c(ncc13)-c1c(c(Cl)cc3[nH]ncc13)CCCCC(=O)N2 (single isomer, unassigned) [Example 165]
21 | 5 nM | C[C@@]12CCCCN(C1)c1nc(OC[C@@]34CCCN3C[C@H](F)C4)nc3c(F)c(ncc13)-c1c(c(Cl)cc3[nH]ncc13)CCCCC(=O)N2 (single isomer, unassigned) [Example 166]
22 | 287 nM | O=C1OCCCc2c(Cl)cc3[nH]ncc3c2-c2ncc3c(nc(OC[C@@]45CCCN4C[C@H](F)C5)nc3c2F)N2CC[C@@H]3CCN1[C@@H]3C2 (single isomer, unassigned) [Example 176]
23 | 3 nM | O=C1OCCCc2c(Cl)cc3[nH]ncc3c2-c2ncc3c(nc(OC[C@@]45CCCN4C[C@H](F)C5)nc3c2F)N2CC[C@H]3CCN1[C@H]3C2 (single isomer, unassigned) [Example 177]
24 | 1510 nM | CN1CCC[C@H]1COc1nc2c3cnc(c(F)c3n1)-c1c(c(Cl)cc3[nH]ncc13)CCCOC(=O)O[C@@]1(C)COCCN2C1 (single isomer, unassigned) [Example 180]
25 | 6 nM | CN1CCC[C@H]1COc1nc2c3cnc(c(F)c3n1)-c1c(c(Cl)cc3[nH]ncc13)CCCOC(=O)O[C@]1(C)COCCN2C1 (single isomer, unassigned) [Example 181]
26 | 7570 nM | Cc1cc2[nH]ncc2c2c1CCCOC(=O)O[C@@]1(C)COCCN(C1)c1nc(OC[C@@H]3CCCN3C)nc3c(F)c-2ncc13 (single isomer, unassigned) [Example 182]
27 | 8 nM | Cc1cc2[nH]ncc2c2c1CCCOC(=O)O[C@]1(C)COCCN(C1)c1nc(OC[C@@H]3CCCN3C)nc3c(F)c-2ncc13 (single isomer, unassigned) [Example 183]
28 | 17 nM | C[C@@H](Oc1nc2c3cnc(c(F)c3n1)-c1c(c(Cl)cc3[nH]ncc13)CCCOC(=O)O[C@@H]1COCCN2C1)[C@@H]1CCCN1C (single isomer, unassigned) [Example 203]
29 | 34 nM | C[C@H](Oc1nc2c3cnc(c(F)c3n1)-c1c(c(Cl)cc3[nH]ncc13)CCCOC(=O)O[C@@H]1COCCN2C1)[C@@H]1CCCN1C (single isomer, unassigned) [Example 204]
30 | 22 nM | Cc1cc2[nH]ncc2c2c1C[C@@H](C)COC(=O)O[C@@H]1CCCN(C1)c1nc(OC[C@@]34CCCN3C[C@H](F)C4)nc3c(F)c-2ncc13 (single isomer, unassigned) [Example 214]
31 | 15 nM | Cc1cc2[nH]ncc2c2c1C[C@H](C)COC(=O)O[C@@H]1CCCN(C1)c1nc(OC[C@@]34CCCN3C[C@H](F)C4)nc3c(F)c-2ncc13 (single isomer, unassigned) [Example 215]
32 | 6 nM | Fc1cc2[nH]ncc2c2c1CCCCOC[C@@H]1CCCCN(C1)c1nc(OC[C@@]34CCCN3C[C@H](F)C4)nc3c(F)c-2ncc13 (single isomer, unassigned) [Example 239]
33 | 3 nM | Fc1cc2[nH]ncc2c2c1CCCCOC[C@H]1CCCCN(C1)c1nc(OC[C@@]34CCCN3C[C@H](F)C4)nc3c(F)c-2ncc13 (single isomer, unassigned) [Example 240]
34 | 1290 nM | Cc1cc2[nH]ncc2c2c1CCCCO[C@H](C)[C@H]1CN(CCO1)c1nc(OC[C@@]34CCCN3C[C@H](F)C4)nc3c(F)c-2ncc13 (single isomer, unassigned) [Example 241]

same assay, conditions: TR-FRET; read-out: KRAS G12D Binding IC50

Row | IC50 | Structure (SMILES)
35 | 9 nM | CC12COCCN(C1)c1nc(OC[C@@]34CCCN3C[C@H](F)C4)nc3c(F)c(ncc13)-c1c(c(Cl)cc3[nH]ncc13)CCCc1nc2no1 (mixture of isomers) [Example 379, (1RS)-10-chloro-33-fluoro-24-(((2R,7a.S)-2-fluorotetrahydro-1H-pyrrolo[1,2-α]pyrrol-7a(5H)-yl)methoxy)-1-methyl-4,30-dioxa-3,13,14,19,23,25,27,34-octaazaheptacyclo[25.4.1.1~2,5~.1~18,22~.0~9,17~.0~12,16~.0~21,26~]tetratriaconta-2,5(34),9,11,14,16,18(33),19,21,23,25-undecaene]
36 | 5 nM | Fc1c2ncc3c(nc(OC[C@@]45CCCN4C[C@H](F)C5)nc13)N1CCCCC(C1)c1noc(n1)CCCc1c(Cl)cc3[nH]ncc3c1-2 (mixture of isomers) [Example 382, (1RS)-10-chloro-33-fluoro-24-(((2R,7a.S)-2-fluorotetrahydro-1H-pyrrolo[1,2-α]pyrrol-7a(5H)-yl)methoxy)-4-oxa-3,13,14,19,23,25,27,34-octaazaheptacyclo[25.4.1.1~2,5~.1~18,22~.0~9,17~0~12,16~.0~21,26~]tetratriaconta-2,5(34),9,11,14,16,18(33),19,21,23,25-undecaene]
37 | 13 nM | Fc1c2ncc3c(nc(OC[C@@]45CCCN4C[C@H](F)C5)nc13)N1CCC[C@H](C1)Cn1ncc(n1)[C@@H]1C[C@@H]1c1c(Cl)cc3[nH]ncc3c1-2 (relative stereo) [Example 383, (11R,13S,19R)-rel-9-chloro-32-fluoro-26-(((2.R.7aS)-2-fluorotetrahydro-1H-pyrrolo[1,2-α]pyrrol-7a(5H)-yl)methoxy)-5,6,16,17,23,25,27,31,34-nonaazaoctacyclo[26.3.1.1~14,17~1~19,23~.0~2,10~0~3,7~.0~11,13~.0~24,29~]tetratriaconta-1(32),2.4,7,9,14(34),15,24,26,28,30-undecaene]
